The values below come from US8575199B2, “Formula (IA″) compounds comprising (piperidin-4-yl)pyridine or (1,2,3,6-tetrahydropyridin-4-4yl) as TRPV1 antagonists” (Purdue Pharma L.P., priority 2007, dated 2013).

≈ marks a conversion by molar mass, not a printed value. Like-named read-outs stand apart in the source and are kept apart here.

Data set [1] is described as follows: Aqueous solubility at pH 6.8 or pH 1.2. In kind it is physicochemical. The following applies: aqueous solution.
Data set [2] concerns the target T1, human recombinant TRPV1 (Homo sapiens, UniProt Q8NER1).
T1 construct: using primers designed surrounding the complete hTRPV1 open reading frame; expressed in transfected cells; host or cells: CHO-K1 cells stably transfected with pcDNA3.1(-)-hVR1 plasmid
The data set is described as follows: pH-based assay, Protocol 2 (hpH-CHO), Ca2+ influx by Fura-2 AM/FDSS-3000 in TRPV1/CHO cells. In kind it is cell-based. The following applies: H2SO4 agonist, pH 5.0-5.1, mean ± standard error of the mean (number of trials), read-out: TRPV1 IC50 Potency, Human pH CHO (hpH-CHO). The text has this:
For Protocol 2, a Chinese Hamster Ovary cell line (CHO) that has been engineered to constitutively express human recombinant TRPV1 was used (TRPV1/CHO cells). The TRPV1/CHO cell line was generated as described below.
The resulting PCR products were purified from agarose gels using Gel Band Purification Kit (GE Healthcare Bioscience) and were subcloned into pCR-Blunt vector (Invitrogen). The cloned cDNA was fully sequenced using a fluorescent dye-terminator reagent (BigDye Terminator ver3.1 Cycle Sequencing Kit, Applied Biosystems) and ABI Prism 3100 genetic analyzer (Applied Biosystems). The pCR-Blunt vector containing the hTRPV1 cDNA was subjected to restriction digestion with EcoR1. […] The sequence of the cDNA encoding TRPV1 is available at GenBank accession number AJ277028. […]
(5) The Fura-2 fluorescent intensity was monitored at a wavelength of 340 nm and at 380 nm, respectively, at a rate of 0.5 Hz for a total of 240 seconds. […]
(6) Fluorescence intensity ratio refers to the fluorescence intensity at 340 nm over the fluorescence intensity at 380 nm at a particular time point. […]
(7) Maximal signal ratios from each well were calculated as output data using the FDSS-3000 analysis program. Data were analyzed using Excel (Microsoft) and XLfit (idbs) software.

[3] abbreviates: pH 1.2, simulated gastric fluid, read-out: aqueous solubility at pH 1.2.
Setting [4] is: pH 6.8, aqueous buffer, read-out: aqueous solubility at pH 6.8.

T1 sequence (Q8NER1 whole entry): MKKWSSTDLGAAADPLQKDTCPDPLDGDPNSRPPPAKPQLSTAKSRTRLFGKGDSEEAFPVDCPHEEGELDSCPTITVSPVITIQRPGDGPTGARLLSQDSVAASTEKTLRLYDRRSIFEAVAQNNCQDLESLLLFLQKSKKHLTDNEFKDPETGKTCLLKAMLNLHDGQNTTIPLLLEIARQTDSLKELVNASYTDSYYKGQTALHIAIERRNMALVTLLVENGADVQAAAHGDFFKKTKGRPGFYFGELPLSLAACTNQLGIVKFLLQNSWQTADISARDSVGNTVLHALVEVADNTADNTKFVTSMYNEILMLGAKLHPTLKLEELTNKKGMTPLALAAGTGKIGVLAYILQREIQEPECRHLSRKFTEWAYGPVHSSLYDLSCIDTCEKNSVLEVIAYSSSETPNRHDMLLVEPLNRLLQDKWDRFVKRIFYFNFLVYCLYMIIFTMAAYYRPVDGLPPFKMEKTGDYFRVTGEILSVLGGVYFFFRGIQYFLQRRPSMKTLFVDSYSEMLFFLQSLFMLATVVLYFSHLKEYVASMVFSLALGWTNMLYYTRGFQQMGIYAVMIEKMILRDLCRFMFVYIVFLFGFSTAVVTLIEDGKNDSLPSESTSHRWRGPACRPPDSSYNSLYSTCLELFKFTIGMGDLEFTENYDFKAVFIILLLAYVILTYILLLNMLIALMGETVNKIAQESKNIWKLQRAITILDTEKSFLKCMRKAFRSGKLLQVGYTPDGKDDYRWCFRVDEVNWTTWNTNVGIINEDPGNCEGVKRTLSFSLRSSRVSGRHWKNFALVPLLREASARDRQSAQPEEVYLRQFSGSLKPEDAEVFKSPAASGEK

The term solubility denotes the dissolved amount per volume that the medium holds. As for `O=C(Nc1ccc(C(F)(F)F)c(F)c1)N1CCC(F)(c2ncccc2Cl)CC1` [Compound 209], the solubility was 9.3 µM (≈ 3.9 µg/mL) in data set [1] (setting [3]) and 1 µM (≈ 0.42 µg/mL) in data set [1] (setting [4]).

Broadly, the IC50 is the point on the concentration scale where inhibition reaches its midpoint. Take `O=C(Nc1ccc(C(F)(F)F)c(Cl)c1)N1CCC(F)(c2ncc([C@H](O)CO)cc2F)CC1` [Compound Q3]: in data set [2], the IC50 was 5.3 ± 1 nM.

Turning to `O=C(Nc1ccc(OC(F)(F)F)c(-c2ccccc2)c1)N1CC=C(c2ncc(CO)cc2Cl)CC1` [Compound D3], the IC50 in data set [2] turned out to be 39.8 ± 2.2 nM.

Turning to `O=C(Nc1ccc(C(F)(F)F)c(F)c1)N1CC=C(c2ncccc2Cl)CC1` [Compound 213], the solubility in data set [1] (setting [3]) was 39.6 µM (≈ 15.8 µg/mL); in data set [1] (setting [4]) it was 0.8 µM (≈ 0.32 µg/mL).

As to `O=C(Nc1ccc(C(F)(F)F)c(Cl)c1)N1CC=C(c2ncccc2F)CC1` [Compound 215], the figures for the solubility in data set [1] (setting [3]) and in data set [1] (setting [4]) were 9.6 µM (≈ 3.84 µg/mL) and 0.6 µM (≈ 0.24 µg/mL), respectively.
